Reference: US20240166609A1, “ANTIBACTERIAL COMPOUNDS” (BLACKSMITH MEDICINES, INC., priority 2021, published 2024)
Converted amounts (≈) assume the structure as drawn.

Experiments:
[1] = test system: K. pneumoniae ATCC13883; assay: Bacterial susceptibility testing, MIC by broth microdilution (CLSI); assay type: cell-based; conditions: Klebsiella pneumoniae, 35° C., 18-24 h, read-out: MIC (μg/mL) K. pneumoniae ATCC13883
Protocol: (§1) Minimal inhibitory concentrations (MIC) were determined by the broth microdilution method in accordance with the Clinical and Laboratory Standards Institute (CLSI) guidelines. In brief, organism suspensions were adjusted to a final inoculum between 3×10^5 and 7×10^5 colony-forming units (CFU)/mL. Drug dilutions and inocula were made in sterile, cation adjusted Mueller-Hinton Broth (Beckton Dickinson). In wells, an inoculum volume of 100 μL was mixed to 2 μL of DMSO with 2-fold serial dilutions of drug. All inoculated microdilution trays were incubated in ambient air at 35° C. for 18-24 h. Following incubation, the lowest concentration of the drug that prevented visible growth (OD600 nm<0.05) was recorded as the MIC. Performance of the assay was monitored by the use of laboratory quality-control strains and compounds with defined MIC spectrum, in accordance with CLSI guidelines

[2] = test system: P. aeruginosa 209 PAO1; assay: as above; assay type: cell-based; conditions: Pseudomonas aeruginosa, 35° C., 18-24 h, read-out: MIC (μg/mL) P. aeruginosa 209 PAO1
Protocol: as §1

[3] = test system: P. aeruginosa ATCC27835; assay: as above; assay type: cell-based; conditions: Pseudomonas aeruginosa, 35° C., 18-24 h, read-out: MIC (μg/mL) P. aeruginosa ATCC27835
Protocol: as §1

[4] = molecular target: T1, E. coli LpxC (Escherichia coli, UniProt P0A725); assay: LpxC Binding Assay (Rapid Fire MS assay); assay type: biochemical
T1 sequence (P0A725 1-305): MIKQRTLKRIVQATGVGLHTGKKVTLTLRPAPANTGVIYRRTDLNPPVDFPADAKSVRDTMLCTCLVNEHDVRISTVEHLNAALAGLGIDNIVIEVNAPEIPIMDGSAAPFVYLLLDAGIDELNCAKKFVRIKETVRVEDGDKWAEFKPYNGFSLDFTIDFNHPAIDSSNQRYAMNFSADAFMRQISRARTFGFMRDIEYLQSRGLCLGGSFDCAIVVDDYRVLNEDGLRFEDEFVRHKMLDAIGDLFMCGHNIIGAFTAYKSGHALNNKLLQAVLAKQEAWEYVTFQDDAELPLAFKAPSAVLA
Protocol: (§2) IC50 values against E. coli and P. aeruginosa LpxC are determined using a Rapid Fire MS assay as previously described J. Med. Chem. 2012, 55, 1662-1670.

[5] = molecular target: T2, P. aeruginosa LpxC (Pseudomonas aeruginosa, UniProt P47205); assay: LpxC Binding Assay (Rapid Fire MS assay); assay type: biochemical
T2 sequence (P47205 1-303): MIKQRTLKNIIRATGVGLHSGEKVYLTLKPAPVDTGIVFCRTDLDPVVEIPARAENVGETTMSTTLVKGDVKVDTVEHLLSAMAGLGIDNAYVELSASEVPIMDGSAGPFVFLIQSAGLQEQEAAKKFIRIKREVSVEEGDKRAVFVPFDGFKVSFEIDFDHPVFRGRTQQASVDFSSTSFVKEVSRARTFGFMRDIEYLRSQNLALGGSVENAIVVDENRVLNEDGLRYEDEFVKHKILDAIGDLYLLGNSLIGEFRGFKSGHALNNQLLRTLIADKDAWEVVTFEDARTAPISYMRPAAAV
Protocol: as §2

[6] = molecular target: K. pneumoniae LpxC (Klebsiella pneumoniae subsp. pneumoniae, UniProt A6T4N9); assay: LpxC Binding Assay (Rapid Fire MS assay); assay type: biochemical
[7] = test system: E. coli ATCC25922; assay: Bacterial susceptibility testing, MIC by broth microdilution (CLSI); assay type: cell-based; conditions: Escherichia coli, 35° C., 18-24 h, read-out: MIC (μg/mL) E. coli ATCC25922
Protocol: as §1

Chain of K. pneumoniae LpxC (A6T4N9 whole entry): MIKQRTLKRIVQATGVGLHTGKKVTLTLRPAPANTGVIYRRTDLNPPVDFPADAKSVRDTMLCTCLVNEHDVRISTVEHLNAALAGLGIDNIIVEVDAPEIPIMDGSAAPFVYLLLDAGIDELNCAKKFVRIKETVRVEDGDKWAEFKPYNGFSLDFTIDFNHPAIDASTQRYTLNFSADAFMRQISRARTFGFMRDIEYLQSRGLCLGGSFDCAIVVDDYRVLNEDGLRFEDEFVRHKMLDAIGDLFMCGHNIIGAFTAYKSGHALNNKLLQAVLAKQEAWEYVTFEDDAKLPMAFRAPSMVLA

| Structure (SMILES) | MIC [1] [µg/mL] | MIC [2] [µg/mL] | MIC [3] [µg/mL] | IC50 [4] [nM] | IC50 [5] [nM] | IC50 [6] [nM] | MIC [7] [µg/mL] |
| --- | --- | --- | --- | --- | --- | --- | --- |
| C[C@H](O)c1nccn1[C@@H](C#Cc1ccc(-c2ccc(OCC3COCCO3)cc2)cc1)CO (mixture of isomers) [Compound 13, (2S)-4-(4′-((1,4-dioxan-2-yl)methoxy)-[1,1′-biphenyl]-4-yl)-2-(2-((S)-1-hydroxyethyl)-1H-imidazol-1-yl)but-3-yn-1-ol] | 1 (≈ 2.23 µM) | 2 (≈ 4.46 µM) | 4 (≈ 8.92 µM) | < 0.5 | 5.5 | 0.9 |  |
| C[C@H](O)c1nccn1[C@@H](C#Cc1ccc(-c2ccc(O[C@H]3COC[C@@H]3N)cc2)cc1)CO (relative stereo) [Compound 15, (S)-4-(4′-(((trans)-4-aminotetrahydrofuran-3-yl)oxy)-[1,1′-biphenyl]-4-yl)-2-(2-((S)-1-hydroxyethyl)-1H-imidazol-1-yl)but-3-yn-1-ol] | 1 (≈ 2.31 µM) | 0.5 (≈ 1.15 µM) | 2 (≈ 4.61 µM) | 1 | 9.8 | 1.6 |  |
| C[C@H](O)c1nccn1CC#Cc1ccc(-c2ccc(C3CN(C(=O)CO)C3)cc2)cc1 [Compound 21, (S)-2-hydroxy-1-(3-(4′-(3-(2-(1-hydroxyethyl)-1H-imidazol-1-yl)prop-1-yn-1-yl)-[1,1′-biphenyl]-4-yl)azetidin-1-yl)ethan-1-one] | 1 (≈ 2.41 µM) | 4 (≈ 9.63 µM) | 4 (≈ 9.63 µM) | < 0.5 | 12.6 | 0.7 |  |
| C[C@H](O)c1nccn1[C@@H](C#Cc1ccc(-c2ccc(OCC(O)CCCO)cc2)cc1)CO (stereo partly drawn) [Compound 23, 5-((4′-((S)-4-hydroxy-3-(2-((S)-1-hydroxyethyl)-1H-imidazol-1-yl)but-1-yn-1-yl)-[1,1′-biphenyl]-4-yl)oxy)pentane-1,4-diol] | 2 (≈ 4.44 µM) | 2 (≈ 4.44 µM) | 2 (≈ 4.44 µM) | 0.5 | 7.8 | 1 |  |
| C[C@H](O)c1nccn1[C@@H](C#Cc1ccc(-c2ccc(OC(CO)CCO)cc2)cc1)CO (mixture of isomers) [Compound 22, 2-((4′-((S)-4-hydroxy-3-(2-((S)-1-hydroxyethyl)-1H-imidazol-1-yl)but-1-yn-1-yl)-[1,1′-biphenyl]-4-yl)oxy)butane-1,4-diol] | 4 (≈ 9.16 µM) | 1 (≈ 2.29 µM) | 4 (≈ 9.16 µM) | 0.8 | 8 | 1.5 |  |
| C[C@H](O)c1nccn1CC#Cc1ccc(-c2ccc(C3CC(NC4COC4)C3)cc2)cc1 (stereo partly drawn) [Compound 20, (S)-1-(1-(3-(4′-(3-(oxetan-3-ylamino)cyclobutyl)-[1,1′-biphenyl]-4-yl)prop-2-yn-1-yl)-1H-imidazol-2-yl)ethan-1-ol] | 0.5 (≈ 1.17 µM) | 4 (≈ 9.36 µM) | 4 (≈ 9.36 µM) | < 0.5 | 11.8 | 0.7 |  |
| COC[C@@H](O)COc1ccc(-c2ccc(C#C[C@@H](CO)n3ccnc3[C@H](C)O)cc2)cc1 [Compound 14, (S)-4-(4′-((R)-2-hydroxy-3-methoxypropoxy)-[1,1′-biphenyl]-4-yl)-2-(2-((S)-1-hydroxyethyl)-1H-imidazol-1-yl)but-3-yn-1-ol] | 2 (≈ 4.58 µM) | 1 (≈ 2.29 µM) | 2 (≈ 4.58 µM) | < 0.5 | 6.4 | 0.9 |  |
| C[C@H](O)c1nccn1[C@@H](C#Cc1ccc(-c2ccc(C3CC(N[C@H]4COC[C@@H]4O)C3)cc2)cc1)CO (stereo partly drawn) [Compound 38, (3R,4S)-4-((3-(4′-((S)-4-hydroxy-3-(2-((S)-1-hydroxyethyl)-1H-imidazol-1-yl)but-1-yn-1-yl)-[1,1′-biphenyl]-4-yl)cyclobutyl)amino)tetrahydrofuran-3-ol] | 8 (≈ 16.4 µM) | 4 (≈ 8.2 µM) | 4 (≈ 8.2 µM) |  |  |  | 2 (≈ 4.1 µM) |
